The structures appear in SMILES notation. pIC50: −log10 of the molar value. Calls of active or inactive are those of the source. No cut-off for these calls is given here. Some results are limits rather than exact numbers.

The pIC50 is the negative decadic logarithm of the IC50, by convention in mol/L. A higher pIC50 goes with a low IC50. Usually inhibition stands for the drop in the measured response relative to a control, in per cent.

Assay [1] deals with HeLa. As to the kind of experiment: Antiproliferative activity against human HeLa cells after 48 hrs by MTT assay. It is filed as functional, cell-based.
The test system of assay [2] is A549. As to the kind of experiment: Antiproliferative activity against human A549 cells after 48 hrs by MTT assay. It counts as functional, cell-based. (Tetrazolium dyes change colour on reduction, which living cells bring about.)
Assay [3] concerns HepG2. The assay can be described thus: Antiproliferative activity against human HepG2 cells after 48 hrs by MTT assay. It is filed as functional, cell-based.
Assay [4] deals with LoVo. As to the kind of experiment: Antiproliferative activity against human LoVo cells after 48 hrs by MTT assay. It counts as functional, cell-based.
For assay [5], the target named is T1, Aurora kinase A (Homo sapiens) (UniProt O14965).
T1 sequence (whole entry): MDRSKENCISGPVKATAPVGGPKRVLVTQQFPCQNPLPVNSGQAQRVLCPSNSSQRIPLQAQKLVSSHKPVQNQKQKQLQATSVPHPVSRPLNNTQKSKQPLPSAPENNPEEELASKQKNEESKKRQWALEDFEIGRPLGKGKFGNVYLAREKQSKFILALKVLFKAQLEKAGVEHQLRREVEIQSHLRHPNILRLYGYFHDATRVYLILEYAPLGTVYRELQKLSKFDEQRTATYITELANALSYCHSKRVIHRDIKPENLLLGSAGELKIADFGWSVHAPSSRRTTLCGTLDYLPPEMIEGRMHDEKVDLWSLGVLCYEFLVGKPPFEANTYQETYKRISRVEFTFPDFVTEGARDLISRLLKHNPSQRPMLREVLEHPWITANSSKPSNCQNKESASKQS
The assay can be described thus: Inhibition of aurora A (unknown origin) using Kemptide as substrate at 1 uM after 60 mins by ADP-Glo luminescence assay relative to control.

Assay [6] has as its target T2, Aurora kinase B (Homo sapiens, UniProt Q96GD4). As to the kind of experiment: Inhibition of aurora B (unknown origin) using Kemptide as substrate at 1 uM after 60 mins by ADP-Glo luminescence assay relative to control.
In assay [7] the target is RAC-alpha serine/threonine-protein kinase (Homo sapiens) (UniProt P31749). As to the kind of experiment: Inhibition of AKT (unknown origin) using Kemptide as substrate at 1 uM after 60 mins by ADP-Glo luminescence assay relative to control.
Sequence of RAC-alpha serine/threonine-protein kinase (Homo sapiens) (P31749 whole entry): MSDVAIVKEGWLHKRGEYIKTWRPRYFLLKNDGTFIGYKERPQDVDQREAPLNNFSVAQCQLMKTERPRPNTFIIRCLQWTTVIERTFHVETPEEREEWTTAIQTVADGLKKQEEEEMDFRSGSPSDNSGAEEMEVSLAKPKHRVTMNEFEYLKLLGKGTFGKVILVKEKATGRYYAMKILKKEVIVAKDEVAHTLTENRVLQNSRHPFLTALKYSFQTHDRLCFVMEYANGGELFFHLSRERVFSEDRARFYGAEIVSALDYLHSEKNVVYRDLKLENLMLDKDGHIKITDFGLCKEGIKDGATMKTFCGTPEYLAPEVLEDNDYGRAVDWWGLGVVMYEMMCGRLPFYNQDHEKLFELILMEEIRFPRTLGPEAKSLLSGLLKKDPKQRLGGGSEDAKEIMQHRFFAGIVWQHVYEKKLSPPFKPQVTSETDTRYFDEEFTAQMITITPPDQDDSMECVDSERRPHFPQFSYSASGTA
The species entered for assay [8] is Homo sapiens. As to the kind of experiment: Inhibition of PI3K (unknown origin) using Kemptide as substrate at 1 uM after 60 mins by ADP-Glo luminescence assay relative to control. Background: ADP-Glo first removes unused ATP, then detects ADP through luciferase.
Assay [9] addresses Activin receptor type-1-like (Homo sapiens) (UniProt P37023). As to the kind of experiment: Inhibition of ALK1 (unknown origin) using Kemptide as substrate at 1 uM after 60 mins by ADP-Glo luminescence assay relative to control.
Assay [10] addresses Vascular endothelial growth factor receptor 2 (Homo sapiens) (UniProt P35968). As to the kind of experiment: Inhibition of VEGFR2 (unknown origin) using Kemptide as substrate at 1 uM after 60 mins by ADP-Glo luminescence assay relative to control.
Assay [11] addresses T3, Aurora kinase A (Homo sapiens, UniProt O14965).
T3 sequence (O14965 whole entry): T1 sequence (whole entry)
The assay can be described thus: Inhibition of aurora A (unknown origin) using Kemptide as substrate after 60 mins by ADP-Glo luminescence assay.

For assay [12], the target named is T2, Aurora kinase B. As to the kind of experiment: Inhibition of aurora B (unknown origin) using Kemptide as substrate after 60 mins by ADP-Glo luminescence assay.
Assay [13] addresses T1, Aurora kinase A (Homo sapiens). As to the kind of experiment: Inhibition of aurora A phosphorylation at Thr288 residues in human HeLa cells after 24 hrs by immunofluorescence assay. It counts as cell-based.
For assay [14], the target named is T2, Aurora kinase B. The assay can be described thus: Inhibition of aurora B phosphorylation at Thr232 residues in human HeLa cells after 24 hrs by immunofluorescence assay. It counts as cell-based.
The target in assay [15] is T2, Aurora kinase B. The assay can be described thus: Inhibition of aurora B in human HeLa cells assessed as decrease in HisH3 phosphorylation at ser10 residues after 24 hrs by Western blot analysis. It counts as cell-based. (Immunoblotting shows a protein as a band on a membrane.)
Assay [16] addresses T1, Aurora kinase A (Homo sapiens). The assay can be described thus: Inhibition of aurora A in human HeLa cells assessed as decrease in Eg5 level after 24 hrs by Western blot analysis. It is filed as cell-based.
The target is the same in assay [17]. As to the kind of experiment: Inhibition of aurora A in human HeLa cells assessed as decrease in Bora level after 24 hrs by Western blot analysis. It is filed as cell-based.
The target is the same in assay [18]. As to the kind of experiment: Inhibition of aurora A in human HeLa cells assessed as decrease in TPX2 level after 24 hrs by Western blot analysis. It counts as cell-based.
In assay [19] the test system is HeLa. As to the kind of experiment: Induction of morphological changes in human HeLa cells assessed as disrupting mitotic spindle formation at 5 uM after 24 hrs by DAPI-staining based immunofluorescence assay. It counts as functional, cell-based.

T2 sequence (Q96GD4 whole entry): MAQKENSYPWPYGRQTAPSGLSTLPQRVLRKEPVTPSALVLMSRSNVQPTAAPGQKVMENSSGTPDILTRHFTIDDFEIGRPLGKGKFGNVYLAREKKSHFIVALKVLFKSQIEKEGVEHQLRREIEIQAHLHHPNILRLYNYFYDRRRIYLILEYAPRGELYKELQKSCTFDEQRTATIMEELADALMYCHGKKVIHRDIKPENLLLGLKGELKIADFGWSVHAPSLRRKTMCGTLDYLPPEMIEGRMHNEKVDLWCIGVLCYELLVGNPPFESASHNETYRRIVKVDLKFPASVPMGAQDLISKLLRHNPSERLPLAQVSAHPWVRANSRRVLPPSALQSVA
Sequence of Activin receptor type-1-like (Homo sapiens) (P37023 whole entry): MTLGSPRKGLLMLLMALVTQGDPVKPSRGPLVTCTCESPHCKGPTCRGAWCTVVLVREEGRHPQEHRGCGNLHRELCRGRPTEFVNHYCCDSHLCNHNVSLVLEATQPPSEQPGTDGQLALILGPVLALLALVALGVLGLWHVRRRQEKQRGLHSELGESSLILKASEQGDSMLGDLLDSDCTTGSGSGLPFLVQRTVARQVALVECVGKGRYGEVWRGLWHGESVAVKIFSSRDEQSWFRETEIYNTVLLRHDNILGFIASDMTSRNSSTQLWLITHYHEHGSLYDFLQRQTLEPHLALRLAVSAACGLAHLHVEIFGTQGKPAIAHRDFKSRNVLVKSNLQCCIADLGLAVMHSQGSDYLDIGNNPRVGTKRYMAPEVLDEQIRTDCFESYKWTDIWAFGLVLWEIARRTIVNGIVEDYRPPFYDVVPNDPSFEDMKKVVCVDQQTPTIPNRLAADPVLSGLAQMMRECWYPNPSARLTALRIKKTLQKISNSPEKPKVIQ
Sequence of Vascular endothelial growth factor receptor 2 (Homo sapiens) (P35968 whole entry): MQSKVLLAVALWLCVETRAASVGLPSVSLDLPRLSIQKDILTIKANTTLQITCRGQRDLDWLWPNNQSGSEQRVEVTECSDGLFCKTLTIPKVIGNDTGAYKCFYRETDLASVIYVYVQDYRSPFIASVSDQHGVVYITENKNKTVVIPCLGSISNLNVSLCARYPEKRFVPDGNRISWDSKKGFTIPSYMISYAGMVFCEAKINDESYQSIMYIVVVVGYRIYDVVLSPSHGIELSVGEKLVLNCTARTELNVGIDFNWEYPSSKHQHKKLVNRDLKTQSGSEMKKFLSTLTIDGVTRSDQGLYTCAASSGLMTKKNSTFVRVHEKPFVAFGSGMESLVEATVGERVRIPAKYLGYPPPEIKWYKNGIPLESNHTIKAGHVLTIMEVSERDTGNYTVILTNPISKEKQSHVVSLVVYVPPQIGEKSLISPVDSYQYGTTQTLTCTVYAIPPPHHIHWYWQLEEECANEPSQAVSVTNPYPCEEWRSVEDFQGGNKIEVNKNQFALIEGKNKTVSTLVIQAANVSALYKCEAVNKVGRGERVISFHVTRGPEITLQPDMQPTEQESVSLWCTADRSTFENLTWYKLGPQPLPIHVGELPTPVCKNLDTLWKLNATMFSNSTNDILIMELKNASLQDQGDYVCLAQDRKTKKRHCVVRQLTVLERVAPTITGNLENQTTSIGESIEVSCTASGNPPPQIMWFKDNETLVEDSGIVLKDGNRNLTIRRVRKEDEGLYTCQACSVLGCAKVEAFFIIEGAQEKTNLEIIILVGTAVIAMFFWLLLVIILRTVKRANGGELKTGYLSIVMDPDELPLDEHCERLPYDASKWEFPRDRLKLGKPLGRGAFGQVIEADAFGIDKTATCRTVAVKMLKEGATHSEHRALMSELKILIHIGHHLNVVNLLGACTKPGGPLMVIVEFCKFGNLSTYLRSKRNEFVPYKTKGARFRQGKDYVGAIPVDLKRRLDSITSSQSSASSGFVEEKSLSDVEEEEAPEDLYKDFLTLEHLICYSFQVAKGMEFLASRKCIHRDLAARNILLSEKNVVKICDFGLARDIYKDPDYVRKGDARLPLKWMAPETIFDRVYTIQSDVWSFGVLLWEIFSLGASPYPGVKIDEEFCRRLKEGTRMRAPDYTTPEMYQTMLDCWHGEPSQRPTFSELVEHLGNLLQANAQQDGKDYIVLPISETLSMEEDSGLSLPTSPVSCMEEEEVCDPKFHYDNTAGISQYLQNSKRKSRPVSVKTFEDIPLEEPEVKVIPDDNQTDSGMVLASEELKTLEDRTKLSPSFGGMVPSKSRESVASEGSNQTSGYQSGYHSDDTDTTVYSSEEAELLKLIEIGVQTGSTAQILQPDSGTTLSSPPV

Regarding `CCCCOC(=O)Cc1csc(Nc2nc(Nc3ccc(C(=O)NC4CC(C)(C)N([O])C(C)(C)C4)cc3)ncc2F)n1`, the pIC50 in assay [1] (hela) was 5.28; in assay [2] (a549), 5.64; in assay [3] (hepg2), 4.94; in assay [4] (lovo), 4.66.
On to `CC1(C)CC(NC(=O)c2ccc(Nc3ncc(F)c(N4CCOCC4)n3)cc2)CC(C)(C)N1[O]`, for which the pIC50 in [1] (hela) was 4.84; in assay [2] (a549), 4.88; in [3] (hepg2) it was 4.65; in assay [4] (lovo) it was 4.45.
As to `Cc1cc(Nc2cc(N3CCN(C)CC3)nc(Sc3ccc(NC(=O)C4CC4)cc3)n2)n[nH]1` [TOZASERTIB], the pIC50 in assay [1] (Homo sapiens, HeLa, 48 h) was 4.34; in [2] (Homo sapiens, A549, 48 h), 4.45; in assay [3] (Homo sapiens, HepG2, 48 h), 4.27; in assay [4] (Homo sapiens, LoVo, 48 h), 4.34.
Regarding `CC(C)OC(=O)Cc1csc(Nc2nc(Nc3ccc(C(=O)NC4CC(C)(C)N([O])C(C)(C)C4)cc3)ncc2F)n1`, the pIC50 in [1] (hela) was 4.95; in assay [2] (a549), 5.47; in assay [3] (hepg2), 4.87; in [4] (lovo) it was 4.92.
Take `CCOC(=O)Cc1csc(Nc2nc(Nc3ccc(C(=O)NC4CC(C)(C)N([O])C(C)(C)C4)cc3)ncc2[N+](=O)[O-])n1`: the pIC50 in [1] (hela) was 4.92; in assay [2] (a549) it was 5.98; in assay [3] (hepg2), 4.58; in assay [4] (lovo), 4.57.
Turning to `CC1(C)CC(NC(=O)c2ccc(Nc3ncc(F)c(NCCCNc4ccc([N+](=O)[O-])cc4)n3)cc2)CC(C)(C)N1[O]`, the negative-log IC50 (pIC50) in assay [1] (hela) was 4.50; in [2] (a549) it was 4.91; in [3] (hepg2), 4.70; in assay [4] (lovo) it was 4.27.
For the compound `CC1(C)CC(NC(=O)c2ccc(Nc3ncc([N+](=O)[O-])c(N4CCN(c5ccc(F)cc5)CC4)n3)cc2)CC(C)(C)N1[O]`, the pIC50 in assay [1] (hela) is 4.60; in [2] (a549) it was 4.99; in assay [3] (hepg2), 4.88; in assay [4] (lovo), 4.56.
Regarding `Cc1cc(Nc2nc(Nc3ccc(C(=O)NC4CC(C)(C)N([O])C(C)(C)C4)cc3)ncc2F)no1`, the pIC50 was 5.25 in assay [1] (Homo sapiens, HeLa, 48 h); 6.06 in assay [2] (Homo sapiens, A549, 48 h); 4.97 in assay [3] (Homo sapiens, HepG2, 48 h); 4.92 in [4] (Homo sapiens, LoVo, 48 h); 7.70 in [11]; 7.76 in assay [12]. In addition, the inhibition was determined as 69% in [5]; 76.5% in assay [6]; 0% in assay [7]; 18% in [8]; 39% in assay [9]; 57% in assay [10].
As to `CCCCOC(=O)Cc1cc(Nc2nc(Nc3ccc(C(=O)NC4CC(C)(C)N([O])C(C)(C)C4)cc3)ncc2F)n[nH]1`, the negative-log IC50 (pIC50) in assay [1] (Homo sapiens, HeLa, 48 h) was 5.57; in assay [2] (Homo sapiens, A549, 48 h), 6.05; in assay [3] (Homo sapiens, HepG2, 48 h), 5.24; in assay [4] (Homo sapiens, LoVo, 48 h), 4.94; in [11], 8.03; in assay [12], 8.55. The inhibition in [5] was 84.5%; in [6], 90.5%; in assay [7], 0%; in [8], 7%; in [9], 33.5%; in assay [10], 35.5%. For the same compound, the inhibition entry in assay [13], in assay [14], in assay [15], in assay [16], in [17] and in [18] was “Dose-dependent effect” in each case. Besides, the result in [19] was Active.
For `Cc1cc(Nc2nc(Nc3ccc(C(=O)NC4CC(C)(C)N([O])C(C)(C)C4)cc3)ncc2[N+](=O)[O-])n[nH]1`, the pIC50 was 4.54 in assay [1] (hela), 4.81 in assay [2] (a549), 4.43 in assay [3] (hepg2) and under 4.00 in assay [4] (lovo).
On to `CCN1CCN(c2nc(Nc3ccc(C(=O)NC4CC(C)(C)N([O])C(C)(C)C4)cc3)ncc2[N+](=O)[O-])CC1`, for which the pIC50 was 4.76 in [1] (hela), 5.71 in assay [2] (a549), 4.25 in [3] (hepg2) and 4.40 in assay [4] (lovo).
For the compound `Cc1cc(Nc2nc(Nc3ccc(C(=O)NC4CC(C)(C)N([O])C(C)(C)C4)cc3)ncc2F)n[nH]1`, the pIC50 in assay [1] (hela) is 4.95; in assay [2] (a549), 5.67; in [3] (hepg2), 4.97; in assay [4] (lovo) it was 4.37.
In the case of `Cc1cc(Nc2nc(Nc3ccc(C(=O)NC4CC(C)(C)N([O])C(C)(C)C4)cc3)ncc2[N+](=O)[O-])no1`, the pIC50 in [1] (hela) was 5.13; in assay [2] (a549), 5.94; in assay [3] (hepg2), 5.13; in [4] (lovo), 4.57.
Take `CC1(C)CC(NC(=O)c2ccc(Nc3ncc([N+](=O)[O-])c(NC4CCCC4)n3)cc2)CC(C)(C)N1[O]`: the negative logarithm of the IC50 (pIC50) was 4.26 in assay [1] (hela), 4.48 in assay [2] (a549), 4.54 in assay [3] (hepg2) and 4.38 in assay [4] (lovo).
On the same counts, the results for `CCOC(=O)c1csc(Nc2nc(Nc3ccc(C(=O)NC4CC(C)(C)N([O])C(C)(C)C4)cc3)ncc2[N+](=O)[O-])n1` are 5.42, 6.13, 5.16 and 4.90.

These data come from ChEMBL document CHEMBL4368924, “Synthesis and biological evaluation of nitroxide labeled pyrimidines as Aurora kinase inhibitors” (Bioorg Med Chem Lett, 2019).
